Test results published in publication PMC3520603 (Journal of biomolecular screening, 2012).
Counter-ions that a name gives are not always drawn. Like-named read-outs stand apart in the source and are kept apart here.

Key:
Format in all cases: binding
[1] = target: T1, RVFV nucleocapsid N protein (Rift valley fever virus, UniProt P21700)
[2] = target: T1, RVFV nucleocapsid N protein; experiment: biochemical
[3] = target: T1, RVFV nucleocapsid N protein; experiment: biochemical; remark: listed apart in the source

T1 sequence (P21700 whole entry, looked up): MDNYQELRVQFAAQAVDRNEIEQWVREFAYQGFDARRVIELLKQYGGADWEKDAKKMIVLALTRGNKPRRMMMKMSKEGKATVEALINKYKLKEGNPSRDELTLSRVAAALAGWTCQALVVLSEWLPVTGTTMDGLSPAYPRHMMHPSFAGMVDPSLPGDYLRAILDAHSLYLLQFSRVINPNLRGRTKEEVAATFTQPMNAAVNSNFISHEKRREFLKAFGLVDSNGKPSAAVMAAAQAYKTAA

With `Br.CN=c1nc(-c2ccccc2)n(-c2ccccc2)s1` [S 4063] the “Percent Inhibition HTS” value [1] was 50.3%, the “Avg. Hill slope” value [2] was −1.64 and the IC50 [2] was 6.7 ± 2.9 µM.
In the case of `CCN(CC)CCCC(C)Nc1c2ccc(Cl)cc2nc2ccc(OC)cc12` (stereo not shown) [quinacrine dihydrochloride], the “Avg. Hill slope” value [3] is reported as −2.99, the IC50 [3] is reported as 162 ± 26 µM and the “Percent Inhibition HTS” value [1] is reported as 65.7%.
In the case of `Cc1ccc(C(=O)Nc2ccc(S(=O)(=O)O)c3cc(S(=O)(=O)O)cc(S(=O)(=O)O)c23)cc1NC(=O)c1cccc(NC(=O)Nc2cccc(C(=O)Nc3cc(C(=O)Nc4ccc(S(=O)(=O)O)c5cc(S(=O)(=O)O)cc(S(=O)(=O)O)c45)ccc3C)c2)c1` [suramin sodium salt], the “Percent Inhibition HTS” value [1] is reported as 93.3%, the “Avg. Hill slope” value [2] is reported as −2.76 and the IC50 [2] is reported as 16.3 ± 7.3 µM.
With `CC[C@@]1(O)C(=O)OCc2c1cc1n(c2=O)Cc2cc3c(CN(C)C)c(O)ccc3nc2-1` [topotecan] the “Percent Inhibition HTS” value [1] was 85.9%.
